How the values were obtained:
Assay in all cases: Cell survival / percentage killing of a culture exposed to an agent (viable counts)
[1] = tested on: Ps. aeruginosa (lab isolate); format: cell-based, Pseudomonas aeruginosa; conditions: for Percentage of cells killed after 5 minutes exposure, Ps. aeruginosa: 0.5% lauric acid Na salt and/or 0.25% Parabens Na salt, sodium salt
Procedure: (§1) Determination of the Cell Counts
(§2) This was achieved by a number of different techniques depending on the circumstances involved. The techniques used were:
(§3) 1. Standard spread plate technique
(§4) This involves spreading a 100 μl aliquot of the desired dilution onto well dried agar plates using an alcohol flamed hockey stick.
(§5) In this method 1 ml samples of the diluted culture are placed into a sterile petri dish and then sterile cooled agar is added. The plate is then gently swirled to facilitate a […] mixing of the sample and the agar and allowed to solidify before being incubated at the temperature of choice in an inverted manner.
(§6) 3. Spot/drop plating method
(§7) This method involves the placing of a sample or the diluted sample onto a pre-dried agar plate but the sample is allowed to dry into the plate. Usually an aliquot of 5-20 μl is chosen to be thus plated. This method offers the advantages of being both economical in terms of agar plates (several drops can be readily accommodated on one agar plate) and also accurate.
(§8) All plates were incubated for 16 hours before being counted.
(§9) All dilutions were carried out in ¼×Ringers solution and all bacteria were grown up in Tryptic Soy Broth (TSB)
(§10) Determination of the cell survival/percentage killing of a culture with respect to exposure to a given agent.
(§11) In this method a sample of a fresh overnight culture was titred and a sample (usually 5 mls) was added to either broth (100mls) containing the test reagents or sterile water (100 mls) and test agents.
(§12) Immediately a sample (T0) was taken and plated using one of the techniques listed above. At regular intervals thereafter other samples were also removed, diluted and plated.
(§13) Error is 1 standard deviation of the mean.

E. coli (lab isolate) = format: cell-based, Escherichia coli; conditions: 0.5% lauric acid Na salt and/or 0.25% Parabens Na salt
Procedure: as §1, §2, §3, §4, §5, §6, §7, §8, §9
Determination of the cell survival/percentage killing of a culture with respect to exposure to a given agent. […]

[2] = tested on: Vancomycin-resistant Enterococci; format: cell-based, Enterococcus; conditions: for killing effect / mode of action on Vancomycin-resistant Enterococci (in words): methyl/propyl paraben Na salt 0.25% (w/v) (1:1) and/or lauric acid Na salt 0.50% (w/v), sodium salt
Procedure: as §1, §2, §3, §4, §5, §6, §7, §8, §9, §10, §11, §12, §13

MRSA strain S13 = format: cell-based, Methicillin Resistant Staphylococcus aureus; conditions: for Percentage of cells killed after 5 minutes exposure, MRSA (S13): 0.5% lauric acid Na salt and/or 0.25% Parabens Na salt, sodium salt
Procedure: as §1, §2, §3, §4, §5, §6, §7, §8, §9, §10, §11, §12, §13

[3] = methyl/propyl paraben Na salt 0.25% (w/v) (1:1) and/or lauric acid Na salt 0.50% (w/v)

## CCCCCCCCCCCC(=O)[O-].[Na+] [lauric acid Na salt, lauric acid sodium salt]
[1]; listed as lauric acid
  Percentage of cells killed after 5 minutes exposure, Ps. aeruginosa: 13
[1]
  Percentage of cells killed after 5 minutes exposure, Ps. aeruginosa: >13
[1]; [3]
  killing effect / mode of action on Ps. aeruginosa (in words): not effective
E. coli (lab isolate)
  Percentage of cells killed after 5 minutes exposure, E. coli: >90
[2]; 5 minutes, 0.5% lauric acid Na salt and/or 0.25% Parabens Na salt
  Percentage of cells killed after 5 minutes exposure, Vancomycin Resistant Enterococcus: 100
[2]; after 5 mins
  kill rate: 100%
[2]; after 5 mins, T0 count 4.63×10^7 cfu/ml
  survivors present when samples were plated: no survivors
[2]; listed as Lauric acid Na salt
  killing effect / mode of action on Vancomycin-resistant Enterococci (in words): bactericidal
[2]; listed as lauric acid
  killing effect / mode of action on Vancomycin-resistant Enterococci (in words): totally destroyed
[2]; strain FPL050, after 5 mins
  survivors present when samples were plated: no survivors
MRSA strain S13; 0.50% lauric acid Na salt, isolate S13 in water held at 37° C., over 2 hrs
  reduction of a population of MRSA: 99.8%
MRSA strain S13; 0.50% lauric acid Na salt, repeated experiment, after 30 mins
  killing of MRSA: 99.6%
MRSA strain S13; 1.75% lauric acid Na salt, isolate S13, over 2 hrs
  killing of MRSA: < 99.0%
MRSA strain S13; listed as lauric acid
  Percentage of cells killed after 5 minutes exposure, MRSA (S13): more than 97
MRSA strain S13
  Percentage of cells killed after 5 minutes exposure, MRSA (S13): >97
MRSA strain S13; [3]
  killing effect / mode of action on MRSA isolate S13 (in words): does elicit killing effect
